Assay results taken from PubChem BioAssay AID248 (DTP/NCI, 2004).
Values joined by “and” are separate entries in the source; they are usually repeats but may differ in a detail not shown here. Equal values may be shown once. Inconclusive results and toxic doses are left out.

System: L1210 leukemia ip in BDF1 mice, survival T/C
Assay: NCI In Vivo Anticancer Drug Screen. Data for tumor model L1210 Leukemia (intraperitoneal) in B6D2F1 (BDF1) mice
Conditions: higher = longer survival
In short: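 Transplanted-tumor mice were given test agent; controls received vehicle only. Survival readings from the two groups were divided (treated over control).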

[1] = endpoint: mean survival time, dose: 100.0 mg/kg/injection, schedule: Q01DX009 (ip), vehicle: saline
[2] = endpoint: mean survival time, dose: 100.0 mg/kg/injection, schedule: Q04DX003 (ip), vehicle: saline
[3] = endpoint: mean survival time, dose: 200.0 mg/kg/injection, schedule: Q01DX009 (ip), vehicle: saline
[4] = endpoint: mean survival time, dose: 200.0 mg/kg/injection, schedule: Q04DX003 (ip), vehicle: saline

O=C1C=C(c2ccccc2)C(O)(c2ccccc2)O1 (configuration not stated)
T/C (endpoint: mean survival time, dose: 100.0 mg/kg/injection, schedule: Q01DX001 (ip), vehicle: saline with Tween-80): 106 % of control
T/C (endpoint: mean survival time, dose: 200.0 mg/kg/injection, schedule: Q01DX001 (ip), vehicle: saline with Tween-80): 103 % of control
T/C (endpoint: mean survival time, dose: 400.0 mg/kg/injection, schedule: Q01DX001 (ip), vehicle: saline with Tween-80): 101 % of control

O=Nc1ccc2cc(O)ccc2c1O
T/C (endpoint: mean survival time, dose: 1.56 mg/kg/injection, schedule: Q01DX009 (ip), vehicle: Klucel (hydroxypropylcellulose) (HPC)): 96 % of control
T/C (endpoint: mean survival time, dose: 3.12 mg/kg/injection, schedule: Q01DX009 (ip), vehicle: Klucel (hydroxypropylcellulose) (HPC)): 96 % of control
T/C (endpoint: mean survival time, dose: 6.25 mg/kg/injection, schedule: Q01DX009 (ip), vehicle: Klucel (hydroxypropylcellulose) (HPC)): 104 % of control
T/C (endpoint: mean survival time, dose: 12.5 mg/kg/injection, schedule: Q01DX009 (ip), vehicle: Klucel (hydroxypropylcellulose) (HPC)): 101 % of control
T/C (endpoint: mean survival time, dose: 12.5 mg/kg/injection, schedule: Q04DX003 (ip), vehicle: Klucel (hydroxypropylcellulose) (HPC)): 103 % of control
T/C (endpoint: mean survival time, dose: 25.0 mg/kg/injection, schedule: Q04DX003 (ip), vehicle: Klucel (hydroxypropylcellulose) (HPC)): 97 % of control
T/C (endpoint: mean survival time, dose: 50.0 mg/kg/injection, schedule: Q04DX003 (ip), vehicle: Klucel (hydroxypropylcellulose) (HPC)): 100 % of control

CC1(C)C2CCC1(C)C(Oc1ccccc1)C2 (configuration not stated)
T/C (endpoint: mean survival time, dose: 100.0 mg/kg/injection, schedule: Q01DX009 (ip), vehicle: saline with Tween-80): 100 % of control
T/C (endpoint: mean survival time, dose: 200.0 mg/kg/injection, schedule: Q01DX009 (ip), vehicle: saline with Tween-80): 98 % of control

Cc1ccc(NC(=O)Oc2ccc3ccccc3c2)cc1NC(=O)Oc1ccc2ccccc2c1
T/C (endpoint: mean survival time, dose: 100.0 mg/kg/injection, schedule: Q01DX009 (ip), vehicle: other): 91 % of control
T/C (endpoint: mean survival time, dose: 200.0 mg/kg/injection, schedule: Q01DX009 (ip), vehicle: other): 93 % of control
T/C (endpoint: mean survival time, dose: 400.0 mg/kg/injection, schedule: Q01DX009 (ip), vehicle: other): 91 % of control

O=C(c1ccccc1)N1CCCCC1
T/C [1]: 95 % of control
T/C [2]: 95 % of control
T/C [3]: 95 % of control
T/C [4]: 94 % of control

C[Si](C)(C)CCc1ccccc1
T/C (endpoint: mean survival time, dose: 100.0 mg/kg/injection, schedule: Q04DX003 (ip), vehicle: saline with Tween-80): 98 % of control
T/C (endpoint: mean survival time, dose: 200.0 mg/kg/injection, schedule: Q04DX003 (ip), vehicle: saline with Tween-80): 95 % of control
T/C (endpoint: mean survival time, dose: 400.0 mg/kg/injection, schedule: Q04DX003 (ip), vehicle: saline with Tween-80): 93 % of control

Cn1c(N)nc2nc[nH]c2c1=S
T/C (endpoint: mean survival time, dose: 0.25 mg/kg/injection, schedule: Q01DX Z (ip), vehicle: carboxymethylcellulose (CMC)): 104 % of control
T/C (endpoint: mean survival time, dose: 0.5 mg/kg/injection, schedule: Q01DX Z (ip), vehicle: carboxymethylcellulose (CMC)): 101 % of control
T/C (endpoint: mean survival time, dose: 1.0 mg/kg/injection, schedule: Q01DX Z (ip), vehicle: carboxymethylcellulose (CMC)): 104 % of control
T/C (endpoint: mean survival time, dose: 2.0 mg/kg/injection, schedule: Q01DX015 (ip), vehicle: carboxymethylcellulose (CMC)): 103 % of control
T/C (endpoint: mean survival time, dose: 2.0 mg/kg/injection, schedule: Q01DX Z (ip), vehicle: carboxymethylcellulose (CMC)): 107 % of control
T/C (endpoint: mean survival time, dose: 2.5 mg/kg/injection, schedule: Q01DX010 (ip), vehicle: saline): 95 % of control and 91 % of control
T/C (endpoint: mean survival time, dose: 2.7 mg/kg/injection, schedule: Q01DX Z (ip), vehicle: methylcellulose (MC)): 159 % of control
T/C (endpoint: mean survival time, dose: 4.0 mg/kg/injection, schedule: Q01DX015 (ip), vehicle: carboxymethylcellulose (CMC)): 92 % of control
T/C (endpoint: mean survival time, dose: 4.0 mg/kg/injection, schedule: Q01DX Z (ip), vehicle: carboxymethylcellulose (CMC)): 97 % of control and 106 % of control
T/C (endpoint: mean survival time, dose: 4.0 mg/kg/injection, schedule: Q01DX Z (ip), vehicle: methylcellulose (MC)): 150 % of control
T/C (endpoint: mean survival time, dose: 5.0 mg/kg/injection, schedule: Q01DX009 (ip), vehicle: saline): 101 % of control and 106 % of control
T/C (endpoint: mean survival time, dose: 5.0 mg/kg/injection, schedule: Q01DX010 (ip), vehicle: saline): 97 % of control and 101 % of control
T/C (endpoint: mean survival time, dose: 6.0 mg/kg/injection, schedule: Q01DX Z (ip), vehicle: methylcellulose (MC)): 123 % of control
T/C (endpoint: mean survival time, dose: 8.0 mg/kg/injection, schedule: Q01DX015 (ip), vehicle: carboxymethylcellulose (CMC)): 107 % of control
T/C (endpoint: mean survival time, dose: 8.0 mg/kg/injection, schedule: Q01DX Z (ip), vehicle: carboxymethylcellulose (CMC)): 118 % of control
T/C (endpoint: mean survival time, dose: 10.0 mg/kg/injection, schedule: Q01DX009 (ip), vehicle: saline): 101 % of control and 104 % of control
T/C (endpoint: mean survival time, dose: 10.0 mg/kg/injection, schedule: Q01DX010 (ip), vehicle: saline): 100 % of control and 91 % of control
T/C (endpoint: mean survival time, dose: 16.0 mg/kg/injection, schedule: Q01DX015 (ip), vehicle: carboxymethylcellulose (CMC)): 104 % of control and 116 % of control
T/C (endpoint: mean survival time, dose: 16.0 mg/kg/injection, schedule: Q01DX Z (ip), vehicle: carboxymethylcellulose (CMC)): 110 % of control
T/C (endpoint: mean survival time, dose: 20.0 mg/kg/injection, schedule: Q01DX009 (ip), vehicle: saline): 106 % of control and 113 % of control
T/C (endpoint: mean survival time, dose: 20.0 mg/kg/injection, schedule: Q01DX010 (ip), vehicle: saline): 94 % of control and 95 % of control and 116 % of control
T/C (endpoint: mean survival time, dose: 32.0 mg/kg/injection, schedule: Q01DX015 (ip), vehicle: carboxymethylcellulose (CMC)): 123 % of control
T/C (endpoint: mean survival time, dose: 40.0 mg/kg/injection, schedule: Q01DX009 (ip), vehicle: saline): 119 % of control
T/C (endpoint: mean survival time, dose: 40.0 mg/kg/injection, schedule: Q01DX010 (ip), vehicle: saline): 97 % of control
T/C (endpoint: mean survival time, dose: 64.0 mg/kg/injection, schedule: Q01DX010 (iv), vehicle: saline): 102 % of control
T/C (endpoint: mean survival time, dose: 64.0 mg/kg/injection, schedule: Q01DX015 (ip), vehicle: carboxymethylcellulose (CMC)): 123 % of control
T/C (endpoint: mean survival time, dose: 80.0 mg/kg/injection, schedule: Q01DX010 (ip), vehicle: saline): 97 % of control
T/C (endpoint: mean survival time, dose: 128.0 mg/kg/injection, schedule: Q01DX010 (iv), vehicle: saline): 100 % of control
T/C (endpoint: mean survival time, dose: 128.0 mg/kg/injection, schedule: Q01DX015 (ip), vehicle: carboxymethylcellulose (CMC)): 115 % of control
T/C (endpoint: mean survival time, dose: 256.0 mg/kg/injection, schedule: Q01DX010 (iv), vehicle: saline): 108 % of control
T/C (endpoint: median survival time, dose: 5.0 mg/kg/injection, schedule: Q01DX009 (ip), vehicle: saline): 105 % of control and 106 % of control
T/C (endpoint: median survival time, dose: 10.0 mg/kg/injection, schedule: Q01DX009 (ip), vehicle: saline): 110 % of control
T/C (endpoint: median survival time, dose: 20.0 mg/kg/injection, schedule: Q01DX009 (ip), vehicle: saline): 110 % of control and 112 % of control
T/C (endpoint: median survival time, dose: 40.0 mg/kg/injection, schedule: Q01DX009 (ip), vehicle: saline): 120 % of control

CCN(C)O
T/C [1]: 109 % of control
T/C [2]: 110 % of control
T/C [3]: 111 % of control
T/C [4]: 105 % of control
T/C (endpoint: mean survival time, dose: 400.0 mg/kg/injection, schedule: Q01DX009 (ip), vehicle: saline): 104 % of control
T/C (endpoint: mean survival time, dose: 400.0 mg/kg/injection, schedule: Q04DX003 (ip), vehicle: saline): 114 % of control

CC(=O)OCC(=O)C1CCC2(C)C3=C(CCC12C)C1(C)CCC(=O)C(C)(C)C1CC3 (configuration not stated)
T/C (endpoint: mean survival time, dose: 50.0 mg/kg/injection, schedule: Q01DX001 (sc), vehicle: steriod suspending solution): 105 % of control
T/C (endpoint: mean survival time, dose: 100.0 mg/kg/injection, schedule: Q01DX001 (sc), vehicle: steriod suspending solution): 94 % of control
T/C (endpoint: mean survival time, dose: 200.0 mg/kg/injection, schedule: Q01DX001 (sc), vehicle: steriod suspending solution): 100 % of control
T/C (endpoint: mean survival time, dose: 400.0 mg/kg/injection, schedule: Q01DX001 (sc), vehicle: steriod suspending solution): 100 % of control

CCN(CC)CCCC(C)Nc1cccc2c1C(=O)c1c(c(O)c3ccccc3c1O)C2=O (configuration not stated)
T/C (endpoint: mean survival time, dose: 25.0 mg/kg/injection, schedule: Q04DX002 (ip), vehicle: saline): 93 % of control
T/C (endpoint: mean survival time, dose: 50.0 mg/kg/injection, schedule: Q04DX002 (ip), vehicle: saline): 93 % of control
T/C (endpoint: mean survival time, dose: 100.0 mg/kg/injection, schedule: Q04DX002 (ip), vehicle: saline): 93 % of control

Cc1scc[n+]1Cc1ccccc1[N+](=O)[O-]
T/C (endpoint: mean survival time, dose: 5.0 mg/kg/injection, schedule: Q01DX001 (ip), vehicle: saline): 109 % of control
T/C (endpoint: mean survival time, dose: 10.0 mg/kg/injection, schedule: Q01DX001 (ip), vehicle: saline): 109 % of control
T/C (endpoint: mean survival time, dose: 20.0 mg/kg/injection, schedule: Q01DX001 (ip), vehicle: saline): 105 % of control
T/C (endpoint: mean survival time, dose: 40.0 mg/kg/injection, schedule: Q01DX001 (ip), vehicle: saline): 109 % of control
T/C (endpoint: mean survival time, dose: 80.0 mg/kg/injection, schedule: Q01DX001 (ip), vehicle: saline): 100 % of control

O=C(NCc1ccccc1)Nc1ccccc1F
T/C (endpoint: mean survival time, dose: 100.0 mg/kg/injection, schedule: Q01DX009 (ip), vehicle: Klucel (hydroxypropylcellulose) (HPC)): 110 % of control
T/C (endpoint: mean survival time, dose: 200.0 mg/kg/injection, schedule: Q01DX009 (ip), vehicle: Klucel (hydroxypropylcellulose) (HPC)): 110 % of control
T/C (endpoint: mean survival time, dose: 400.0 mg/kg/injection, schedule: Q01DX009 (ip), vehicle: Klucel (hydroxypropylcellulose) (HPC)): 104 % of control
